Measurements as given in ChEMBL document CHEMBL1201861, “Genomics of Drug Sensitity in Cancer screening data, Wellcome Trust Sanger Institute”.

Columns and labels:
[1] = system: OAW-42; experiment: cells; format: functional, cell-based, Homo sapiens; conditions: Homo sapiens, OAW-42;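 further: growth inhibition of OAW-42 cells, read out with a cell viability assay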
Description: SANGER: Inhibition of human OAW-42 cell growth in a cell viability assay.

[2] = system: UMC-11; experiment: cells; format: functional, cell-based, Homo sapiens; conditions: Homo sapiens, UMC-11;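 further: growth inhibition of UMC-11 cells, read out with a cell viability assay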
Description: SANGER: Inhibition of human UMC-11 cell growth in a cell viability assay.

[3] = system: P31-FUJ; experiment: cells; format: functional, cell-based, Homo sapiens; conditions: Homo sapiens, P31-FUJ;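 further: growth inhibition of P31-FUJ cells, read out with a viability assay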
Description: SANGER: Inhibition of human P31-FUJ cell growth in a cell viability assay.

[4] = system: SNU-387; experiment: cells; format: functional, cell-based, Homo sapiens; conditions: Homo sapiens, SNU-387
Description: SANGER: Inhibition of human SNU-387 cell growth in a cell viability assay.

[5] = system: K052; experiment: cells; format: functional, cell-based, Homo sapiens; conditions: Homo sapiens, K052;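 further: Read-out from a cell viability assay, IC50 reflecting suppression of K052 cell growth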
Description: SANGER: Inhibition of human K052 cell growth in a cell viability assay.

[6] = system: VM-CUB-1; experiment: cells; format: functional, cell-based, Homo sapiens; conditions: Homo sapiens, VM-CUB-1;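 further: cell viability assay measuring growth inhibition of the human VM-CUB-1 cell line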
Description: SANGER: Inhibition of human VM-CUB-1 cell growth in a cell viability assay.

[7] = system: PANC-08-13; experiment: cells; format: functional, cell-based, Homo sapiens; conditions: Homo sapiens, PANC-08-13
Description: SANGER: Inhibition of human PANC-08-13 cell growth in a cell viability assay.

[8] = system: MDA-MB-231; experiment: cells; format: functional, cell-based, Homo sapiens; conditions: Homo sapiens, MDA-MB-231
Description: SANGER: Inhibition of human MDA-MB-231 cell growth in a cell viability assay.

[9] = system: NCI-H1993; experiment: cells; format: functional, cell-based, Homo sapiens; conditions: Homo sapiens, NCI-H1993;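 further: growth inhibition of the cancer cell line, assessed with a cell viability assay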
Description: SANGER: Inhibition of human NCI-H1993 cell growth in a cell viability assay.

[10] = system: UACC-893; experiment: cells; format: functional, cell-based, Homo sapiens; conditions: Homo sapiens, UACC-893
Description: SANGER: Inhibition of human UACC-893 cell growth in a cell viability assay.

[11] = system: SW1783; experiment: cells; format: functional, cell-based, Homo sapiens; conditions: Homo sapiens, SW1783
Description: SANGER: Inhibition of human SW1783 cell growth in a cell viability assay.

[12] = system: SW756; experiment: cells; format: functional, cell-based, Homo sapiens; conditions: Homo sapiens, SW756;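 further: growth inhibition of human SW756 cells, read out with a cell viability assay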
Description: SANGER: Inhibition of human SW756 cell growth in a cell viability assay.

[13] = system: CPC-N; experiment: cells; format: functional, cell-based, Homo sapiens; conditions: Homo sapiens, CPC-N;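 further: growth inhibition of CPC-N cells, with a cell viability assay as the readout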
Description: SANGER: Inhibition of human CPC-N cell growth in a cell viability assay.

[14] = system: SF-295; experiment: cells; format: functional, cell-based, Homo sapiens; conditions: Homo sapiens, SF-295;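 further: growth inhibition of SF-295 cells, read out with a cell viability assay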
Description: SANGER: Inhibition of human SF295 cell growth in a cell viability assay.

[15] = system: CP50-MEL-B; experiment: cells; format: functional, cell-based, Homo sapiens; conditions: Homo sapiens, CP50-MEL-B;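 further: growth inhibition of the human cell line, measured with a cell viability read-out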
Description: SANGER: Inhibition of human CP50-MEL-B cell growth in a cell viability assay.

[16] = system: CAL-12T; experiment: cells; format: functional, cell-based, Homo sapiens; conditions: Homo sapiens, CAL-12T;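 further: growth inhibition of human CAL-12T cells, read out with a cell viability assay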
Description: SANGER: Inhibition of human CAL-12T cell growth in a cell viability assay.

[17] = system: U2OS; experiment: cells; format: functional, cell-based, Homo sapiens, U-2-OS; conditions: Homo sapiens, U2OS;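 further: growth inhibition of human U-2-OS cells, determined with a cell viability assay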
Description: SANGER: Inhibition of human U-2-OS cell growth in a cell viability assay.

[18] = system: OVCAR-8; experiment: cells; format: functional, cell-based, Homo sapiens; conditions: Homo sapiens, OVCAR-8;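 further: growth inhibition of human OVCAR-8 cells, read out by a cell viability assay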
Description: SANGER: Inhibition of human OVCAR-8 cell growth in a cell viability assay.

[19] = system: NCI-H64; experiment: cells; format: functional, cell-based, Homo sapiens; conditions: Homo sapiens, NCI-H64;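 further: growth inhibition of NCI-H64 cells, read out with a cell viability assay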
Description: SANGER: Inhibition of human NCI-H64 cell growth in a cell viability assay.

[20] = system: EB-3; experiment: cells; format: functional, cell-based, Homo sapiens; conditions: Homo sapiens, EB-3;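 further: human EB-3 cells, growth inhibition read out via a cell viability assay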
Description: SANGER: Inhibition of human EB-3 cell growth in a cell viability assay.

[21] = system: NCI-H1651; experiment: cells; format: functional, cell-based, Homo sapiens; conditions: Homo sapiens, NCI-H1651;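 further: Read-out is a cell viability assay, with IC50 expressing inhibition of NCI-H1651 cell growth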
Description: SANGER: Inhibition of human NCI-H1651 cell growth in a cell viability assay.

[22] = system: T98G; experiment: cells; format: functional, cell-based, Homo sapiens; conditions: Homo sapiens, T98G;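 further: growth inhibition of T98G cells, read out by a cell viability assay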
Description: SANGER: Inhibition of human T98G cell growth in a cell viability assay.

[23] = system: COR-L23; experiment: cells; format: functional, cell-based, Homo sapiens; conditions: Homo sapiens, COR-L23;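 further: cell viability assay measuring how strongly compounds suppress growth of COR-L23 cells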
Description: SANGER: Inhibition of human COR-L23 cell growth in a cell viability assay.

[24] = system: MC-CAR; experiment: cells; format: functional, cell-based, Homo sapiens; conditions: Homo sapiens, MC-CAR;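 further: growth inhibition of the human MC-CAR cell line, read out by a cell viability assay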
Description: SANGER: Inhibition of human MC-CAR cell growth in a cell viability assay.

[25] = system: ASPC1; experiment: cells; format: functional, cell-based, Homo sapiens; conditions: Homo sapiens, ASPC1;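 further: growth inhibition of AsPC-1 cells, read out with a cell viability assay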
Description: SANGER: Inhibition of human AsPC-1 cell growth in a cell viability assay.

[26] = system: NCI-H719; experiment: cells; format: functional, cell-based, Homo sapiens; conditions: Homo sapiens, NCI-H719;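 further: growth inhibition of the cultured cell line, read out with a viability assay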
Description: SANGER: Inhibition of human NCI-H719 cell growth in a cell viability assay.

[27] = system: NCI-H2342; experiment: cells; format: functional, cell-based, Homo sapiens; conditions: Homo sapiens, NCI-H2342;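 further: growth inhibition of the cancer cell line, determined with a cell viability assay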
Description: SANGER: Inhibition of human NCI-H2342 cell growth in a cell viability assay.

[28] = system: SK-MM-2; experiment: cells; format: functional, cell-based, Homo sapiens; conditions: Homo sapiens, SK-MM-2;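 further: growth inhibition of human SK-MM-2 cells, read out with a cell viability assay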
Description: SANGER: Inhibition of human SK-MM-2 cell growth in a cell viability assay.

[29] = system: NCI-H187; experiment: cells; format: functional, cell-based, Homo sapiens; conditions: Homo sapiens, NCI-H187;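 further: growth inhibition of NCI-H187 cells, read out as cell viability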
Description: SANGER: Inhibition of human NCI-H187 cell growth in a cell viability assay.

[30] = system: SW48; experiment: cells; format: functional, cell-based, Homo sapiens; conditions: Homo sapiens, SW48;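 further: growth inhibition of SW48 cells, read out with a cell viability assay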
Description: SANGER: Inhibition of human SW48 cell growth in a cell viability assay.

[31] = system: Ca-Ski; experiment: cells; format: functional, cell-based, Homo sapiens; conditions: Homo sapiens, Ca-Ski;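 further: cell viability assay measuring inhibition of Ca-Ski cell growth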
Description: SANGER: Inhibition of human Ca-Ski cell growth in a cell viability assay.

[32] = system: A204; experiment: cells; format: functional, cell-based, Homo sapiens; conditions: Homo sapiens, A204;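 further: growth inhibition of human A204 cells, read out with a cell viability assay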
Description: SANGER: Inhibition of human A204 cell growth in a cell viability assay.

[33] = system: NCI-H1573; experiment: cells; format: functional, cell-based, Homo sapiens; conditions: Homo sapiens, NCI-H1573;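 further: growth inhibition of NCI-H1573 cells, read out with a cell viability assay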
Description: SANGER: Inhibition of human NCI-H1573 cell growth in a cell viability assay.

[34] = system: BPH-1; experiment: cells; format: functional, cell-based, Homo sapiens; conditions: Homo sapiens, BPH-1;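 further: cell viability assay measuring growth inhibition of human BPH-1 cells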
Description: SANGER: Inhibition of human BPH-1 cell growth in a cell viability assay.

[35] = system: HuO-3N1; experiment: cells; format: functional, cell-based, Homo sapiens; conditions: Homo sapiens, HuO-3N1;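 further: cell viability readout used to measure how strongly compounds suppress proliferation of human HuO-3N1 cells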
Description: SANGER: Inhibition of human HuO-3N1 cell growth in a cell viability assay.

[36] = system: NCCIT; experiment: SANGER: Inhibition of human NCCIT cell growth in a cell viability assay.; format: functional, cell-based; conditions: Homo sapiens, NCCIT
[37] = system: SKG-IIIa; experiment: cells; format: functional, cell-based, Homo sapiens; conditions: Homo sapiens, SKG-IIIa;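 further: cell growth inhibition, read out with a cell viability assay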
Description: SANGER: Inhibition of human SKG-IIIa cell growth in a cell viability assay.

[38] = system: TUR; experiment: cells; format: functional, cell-based, Homo sapiens; conditions: Homo sapiens, TUR;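 further: growth inhibition of human TUR cells, read out with a cell viability assay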
Description: SANGER: Inhibition of human TUR cell growth in a cell viability assay.

[39] = system: NCI-H322M; experiment: cells; format: functional, cell-based, Homo sapiens; conditions: Homo sapiens, NCI-H322M;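 further: cell viability assay measuring inhibition of growth of human NCI-H322M cells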
Description: SANGER: Inhibition of human NCI-H322M cell growth in a cell viability assay.

[40] = system: SK-HEP1; experiment: cells; format: functional, cell-based, Homo sapiens, SK-HEP-1; conditions: Homo sapiens, SK-HEP1;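 further: cell viability readout used to quantify reduction in proliferation of human SK-HEP-1 cells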
Description: SANGER: Inhibition of human SK-HEP-1 cell growth in a cell viability assay.

[41] = system: MDA-MB-157; experiment: cells; format: functional, cell-based, Homo sapiens; conditions: Homo sapiens, MDA-MB-157
Description: SANGER: Inhibition of human MDA-MB-157 cell growth in a cell viability assay.

[42] = system: G-402; experiment: cells; format: functional, cell-based, Homo sapiens; conditions: Homo sapiens, G-402
Description: SANGER: Inhibition of human G-402 cell growth in a cell viability assay.

[43] = system: DMS-153; experiment: cells; format: functional, cell-based, Homo sapiens; conditions: Homo sapiens, DMS-153
Description: SANGER: Inhibition of human DMS-153 cell growth in a cell viability assay.

[44] = system: MFE-280; experiment: cells; format: functional, cell-based, Homo sapiens; conditions: Homo sapiens, MFE-280;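 further: growth inhibition of MFE-280 cells, determined with a cell viability readout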
Description: SANGER: Inhibition of human MFE-280 cell growth in a cell viability assay.

[45] = system: SiHa; experiment: cells; format: functional, cell-based, Homo sapiens; conditions: Homo sapiens, SiHa;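 further: Viability-based readout of growth inhibition in SiHa cells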
Description: SANGER: Inhibition of human SiHa cell growth in a cell viability assay.

CCC/C=C/C=C/C(=O)O[C@H]1/C(=C/C(=O)OC)C[C@H]2C[C@H]([C@@H](C)O)OC(=O)C[C@H](O)C[C@@H]3C[C@H](OC(C)=O)C(C)(C)[C@](O)(C[C@@H]4C/C(=C/C(=O)OC)C[C@H](/C=C/C(C)(C)[C@]1(O)O2)O4)O3 [BRYOSTATIN 1]
IC50 [1]: > 8 nM | IC50 [2]: > 8 nM | IC50 [3]: > 8 nM | IC50 [4]: > 8 nM | IC50 [5]: > 8 nM | IC50 [6]: > 8 nM | IC50 [7]: > 8 nM | IC50 [8]: > 8 nM | IC50 [9]: > 8 nM | IC50 [10]: > 8 nM | IC50 [11]: > 8 nM | IC50 [12]: > 8 nM | IC50 [13]: > 8 nM | IC50 [14]: > 8 nM | IC50 [15]: > 8 nM | IC50 [16]: > 8 nM | IC50 [17]: > 8 nM | IC50 [18]: > 8 nM | IC50 [19]: > 8 nM | IC50 [20]: > 8 nM | IC50 [21]: > 8 nM | IC50 [22]: > 8 nM | IC50 [23]: > 8 nM | IC50 [24]: > 8 nM | IC50 [25]: > 8 nM | IC50 [26]: > 8 nM | IC50 [27]: > 8 nM | IC50 [28]: > 8 nM | IC50 [29]: > 8 nM | IC50 [30]: > 8 nM | IC50 [31]: > 8 nM | IC50 [32]: > 8 nM | IC50 [33]: 2.36 nM | IC50 [34]: 6.03 nM | IC50 [35]: > 8 nM | IC50 [36]: > 8 nM | IC50 [37]: > 8 nM | IC50 [38]: > 8 nM | IC50 [39]: > 8 nM | IC50 [40]: > 8 nM | IC50 [41]: > 8 nM | IC50 [42]: > 8 nM | IC50 [43]: > 8 nM | IC50 [44]: > 8 nM | IC50 [45]: > 8 nM
